Results from patent publication US8785491B2, “Pharmaceutical compositions and methods for treating age-related macular degeneration with melatonin analogues” (Takeda Pharmaceuticals U.S.A., Inc., priority 2008, dated 2014).
Where two headings read alike, the source gives them in different places.

Tests used:
N18-RE-105 hybrid cells = assay: Effect against glutamate-induced cytotoxicity (LDH release)
Method: We used ramelteon and metabolite 1 (as synthesized in Example 1) in this study. Idebenone and vitamine E (α-tocopherol) were purchased from Wako Pure Chemical Industries (Osaka, Japan) and used as positive control. All other chemicals were purchased from standard sources.
For cytotoxicity studies, cells were plated in 96-well plates at a density of 5,000 cells per well in 0.1 ml of the above medium. After culturing for 24 hr, the medium was removed and replaced with medium containing 10 mM glutamate with or without various concentrations of compounds. After 24 hours of incubation, cytotoxicity was quantitated by the release of the cytosolic enzyme lactate dehydrogenase (LDH) into the culture medium. The percentage of cell viability in the presence of each of the test compounds was calculated from the following formula: % cell viability in the presence of compound={LDH activity (absorbance at 550 nm) in the culture medium with compound plus 10 mM glutamate−LDH activity in the control culture medium/LDH activity in the culture medium with 10 mM glutamate−LDH activity in the control culture medium}×100.

[1] = tested on: human retinal pigment epithelial (RPE) cells; settings: added diurnally to RPE cell cultures for three consecutive days; cited from earlier work
[2] = tested on: age-related macular degeneration; settings: 3 mg daily at bedtime for at least three months; cited from earlier work
[3] = tested on: melatonin MT1/MT2 receptors; settings: cited from earlier work

What does the source list for `CCC(=O)NCC[C@@H]1CCc2cc(O)c3c(c21)CCO3` [metabolite 1, (S)—N-(2-[4-hydroxy-1,6,7,8-tetrahydro-2H-indeno[5,4-b]furan-8-yl]ethyl)propionamide]?
effect on cytotoxicity induced by 10 mM glutamate / cell viability (N18-RE-105 hybrid cells): inhibited; cell death (absorbance, LDH) with varying amounts of compound (N18-RE-105 hybrid cells; 10 mM glutamate treated cell culture, increasing amount, FIG. 2): cell death is reduced; toxicity of glutamate over the basal viability (N18-RE-105 hybrid cells; highest concentration, 10 mM glutamate, FIGS. 1 and 2): completely prevented

Which “effect on cytotoxicity induced by 10 mM glutamate / cell viability” value (“effect … by 10 mM glutamate / cell viability” below) (N18-RE-105 hybrid cells) does the source give for `COc1ccc2[nH]cc(CCNC(C)=O)c2c1` [melatonin] here?
Its value is “did not affect cell viability”.

What about the “H2O2-induced cell death and mitochondrial DNA damage” value [1] of the same compound?
Its value is “markedly reduced”.

What about the visual acuity [2] of the same compound?
The visual acuity was “remained stable”.

For `Cc1c(C)c2c(c(C)c1O)CC[C@@](C)(CCC[C@H](C)CCC[C@H](C)CCCC(C)C)O2` [tocopherol, α-tocopherol], which “effect … by 10 mM glutamate / cell viability” value (N18-RE-105 hybrid cells; 10 mM glutamate, 24 hours incubation, LDH release, FIG. 1) is on record?
Its value is “cell viability was increased”.

With `CCC(=O)NCC[C@@H]1CCc2ccc3c(c21)CCO3` [ramelteon, (S)—N-[2-(1,6,7,8-tetrahydro-2H-indeno[5,4-b]furan-8-yl)ethyl]propionamide] as the compound, how does the “effect … by 10 mM glutamate / cell viability” value (N18-RE-105 hybrid cells) read?
Its value is “did not affect cell viability”.

And the “affinity for melatonin MT1/MT2 receptors” value [3]?
Its value is “high affinity”.

For `COC1=C(OC)C(=O)C(CCCCCCCCCCO)=C(C)C1=O` [Idebenone], which “effect … by 10 mM glutamate / cell viability” value (N18-RE-105 hybrid cells) is on record?
The value was “cell viability was increased”.
